Assay results taken from patent publication US8664226B2, “Compound having 3-heteroarylpyrimidin-4-(3H)-one structure and pharmaceutical preparation containing same” (Kowa Company, Ltd., priority 2009, dated 2014).

Tests used:
human PPARγ2 = molecular target: T1, human PPARγ2 (Homo sapiens, UniProt P37231); test: PPARγ activation activity, Gal4 chimera luciferase transfection assay using COS7 cells; type: cell-based; settings: COS7 cells; for EC50: Gal4-human PPARγ2 LBD chimera, luciferase reporter, 16 hours, read-out: EC50
T1 construct: the amino acids 182 to 505 of human PPARγ2; expressed in transfected cells; host or cells: COS7 cells
Description: The agonistic activity of the compounds of the invention on PPARγ was measured based on the transfection assay using COS7 cells (DS Pharma Biomedical Co., Ltd., Osaka, Japan), which are the cell line derived from the kidney of the African green monkey. COS7 cells were cultured under 5% CO2 concentration, and DMEM medium containing 10% fetal bovine serum, glutamic acid, and antibiotics was used as a medium.
As an expression vector, a chimera in which DNA binding domain of Gal4, which is a yeast transcription factor, and ligand binding domain of human PPAR^γ2 are fused, i.e., a fused product between the amino acids 1 to 147 of Gal4 transcription factor and the amino acids 182 to 505 of human PPARγ2, was used. Furthermore, as a reporter vector, a firefly luciferase containing five copies of Gal4 recognition sequence in the promoter region was used. Plasmid transfection to the cells was performed according to a method which uses jetPEI (trade name, manufactured by Funakoshi Co., Ltd., Tokyo, Japan). Furthermore, β-galactosidase expression vector was employed as an internal standard.
After the transfection of the cells, the medium was replaced with a DMEM medium (containing 1% serum) added with the compound, and the cells were further cultured for 16 hours. After that, the luciferase activity and β-galactosidase activity in the cell lysis solution were measured.
For the present test, dimethyl sulfoxide (DMSO) was used for dissolution and dilution of the test compounds, and during the cell treatment, the DMSO concentration in DMEM medium (containing 1% serum) was adjusted to 0.1%. As a positive compound, rosiglitazone (trade name, manufactured by ALEXIS Corporation, Switzerland) was used. […] The 50% effective concentration of the test compound (EC50, 50% effect concentration) was calculated by using SAS Preclinical Package Ver5.0 (trade name, manufactured by SAS institute Japan Co., Tokyo, Japan), which is a statistical analysis program.

[1] = molecular target: T2, angiotensin II type 1 receptor (Oryctolagus cuniculus, UniProt P34976); test: Angiotensin II antagonistic activity in isolated rabbit blood vessels; settings: angiotensin II (10 nM)-induced contraction of rabbit thoracic aorta ring
T2 construct: By using a specimen of isolated rabbit blood vessels; from tissue; host or cells: rabbit thoracic aorta ring (New Zealand White, male)
T2 sequence (P34976 1-359): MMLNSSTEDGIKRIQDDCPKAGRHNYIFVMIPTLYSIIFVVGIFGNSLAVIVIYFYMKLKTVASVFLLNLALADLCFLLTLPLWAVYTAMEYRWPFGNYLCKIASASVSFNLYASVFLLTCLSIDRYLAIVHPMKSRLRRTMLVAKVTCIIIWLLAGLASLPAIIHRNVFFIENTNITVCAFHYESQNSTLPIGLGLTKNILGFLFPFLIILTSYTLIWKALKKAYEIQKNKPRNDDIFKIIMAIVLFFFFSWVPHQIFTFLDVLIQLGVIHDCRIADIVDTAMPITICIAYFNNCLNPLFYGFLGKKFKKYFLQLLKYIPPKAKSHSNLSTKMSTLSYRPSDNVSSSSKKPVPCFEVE
Procedure, shortened: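 Contraction of isolated rabbit vessel induced by angiotensin II, in a magnus bath at 37° C gassed with 95% O2/5% CO2. Responses expressed as % of the 10 nM angiotensin II contraction without compound, and IC50 calculated from the concentration-response curve.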

T1 sequence (P37231 182-505): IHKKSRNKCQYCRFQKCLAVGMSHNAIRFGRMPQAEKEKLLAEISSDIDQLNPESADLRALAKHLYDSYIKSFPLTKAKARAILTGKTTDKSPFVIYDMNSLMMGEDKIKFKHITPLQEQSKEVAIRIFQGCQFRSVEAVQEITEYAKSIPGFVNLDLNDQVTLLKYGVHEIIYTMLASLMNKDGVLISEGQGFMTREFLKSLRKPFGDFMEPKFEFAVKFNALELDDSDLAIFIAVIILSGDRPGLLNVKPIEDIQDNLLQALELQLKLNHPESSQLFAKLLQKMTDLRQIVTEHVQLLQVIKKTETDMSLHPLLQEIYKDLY
T1 sequence (P04386 1-147 partner limits assumed): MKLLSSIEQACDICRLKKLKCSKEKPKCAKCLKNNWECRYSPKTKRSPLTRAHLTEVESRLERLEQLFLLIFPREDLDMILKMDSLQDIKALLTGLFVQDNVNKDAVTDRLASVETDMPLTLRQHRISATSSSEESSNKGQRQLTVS

| Structure (SMILES) | EC50 (human PPARγ2) [nM] | Emax (human PPARγ2; COS-7, 16 h, maximum activity strength relative to the maximum activity of rosiglitazone, read-out: % MAX vs Rosiglitazone) [%] | IC50 [1] [nM] |
| --- | --- | --- | --- |
| CCCCc1nc(C)n(-c2nc3ccccc3n2C)c(=O)c1Cc1ccc(-c2ccccc2-c2nnn[nH]2)cc1 [Example 69, 5-{[2′-(1H-tetrazol-5-yl)biphenyl-4-yl]methyl}-6-butyl-2-methyl-3-(1-methyl-1H-benzimidazol-2-yl)pyrimidin-4 (3H)-one] | 2690 | 31.6 | 958 |
| CCCCc1nc(C)n(-c2cc(OC)nc(OC)n2)c(=O)c1Cc1ccc(-c2ccccc2-c2nnn[nH]2)cc1 [Example 59] | 1240 |  | 13 |
| CCCCc1nc(C)n(-c2ncc(C(F)(F)F)cc2Cl)c(=O)c1Cc1ccc(-c2ccccc2-c2nnn[nH]2)cc1 [Example 13, 5-{[2′-(1H-tetrazol-5-yl)biphenyl-4-yl]methyl}-6-butyl-3-[3-chloro-5-(trifluoromethyl)pyridin-2-yl]-2-methylpyrimidin-4(3H)-one] | 170 |  | 26 |
